This is an account of results in US6685617B1, “Inhibitors of α4β1 mediated cell adhesion” (Pharmacia & Upjohn Company, priority 1998, dated 2004).

pIC50: −log10 of the molar value. Counter-ions that a name gives are not always drawn.

In assay [1] the target is T1, α4β1 integrin (Jurkat T-cell adhesion to IL-1 stimulated endothelial cell monolayers) (Homo sapiens, UniProt P05556+P13612).
T1 construct: a T-cell line, Jurkat, known to express the α4β1 integrin; host or cells: Jurkat T-cell line
As to the kind of experiment: Jurkat-endothelial cell adhesion assay (Jurkat EC). Type of assay: cell-based. The settings on record: Jurkat cells on IL-1 stimulated human umbilical vein endothelial cells; read-out: JK/EC (Jurkat EC Assay IC50 value range). The method in brief:
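BCECF-AM-labelled Jurkat cells were mixed with compound, generally 100, 20, 5 and 1.25 μM, and added to HUVEC monolayers (passage ≤6) pre-stimulated 4 hr at 37° C with 0.1 ng/ml IL-1. After 5 min on ice and 20 min at 37° C, washed wells were read by fluorescence as % adhesion relative to no compound.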

Assay [2] concerns the target T2, α4β1 integrin (Jurkat cell adhesion to immobilized CS-1 derived peptide CLHPGEILDVPST) (Homo sapiens, UniProt P05556+P13612).
T2 construct: 100 μl of Jurkat cells (2.5×10^6 cells/ml) in DMEM plus BSA; host or cells: Jurkat T-cell line
In words: Jurkat-CS-1 assay. It is filed as cell-based. The settings on record: Jurkat cells on CS-1 peptide coated plates; read-out: JK/CS-1 (Jurkat CS-1 Assay IC50 value range). The method in brief: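 CS-1 peptide was SPDP-crosslinked onto HSA-coated plates and blocked with BSA. Jurkat cells (2.5×10^6 cells/ml) in DMEM/BSA were mixed with compound, generally at 100, 20, 5 and 1.25 μM, and allowed to adhere for 1 hr at 37° C. Bound cells were fixed, stained with toluidine blue and quantified by OD590.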

T1 sequence (P13612 34-1032): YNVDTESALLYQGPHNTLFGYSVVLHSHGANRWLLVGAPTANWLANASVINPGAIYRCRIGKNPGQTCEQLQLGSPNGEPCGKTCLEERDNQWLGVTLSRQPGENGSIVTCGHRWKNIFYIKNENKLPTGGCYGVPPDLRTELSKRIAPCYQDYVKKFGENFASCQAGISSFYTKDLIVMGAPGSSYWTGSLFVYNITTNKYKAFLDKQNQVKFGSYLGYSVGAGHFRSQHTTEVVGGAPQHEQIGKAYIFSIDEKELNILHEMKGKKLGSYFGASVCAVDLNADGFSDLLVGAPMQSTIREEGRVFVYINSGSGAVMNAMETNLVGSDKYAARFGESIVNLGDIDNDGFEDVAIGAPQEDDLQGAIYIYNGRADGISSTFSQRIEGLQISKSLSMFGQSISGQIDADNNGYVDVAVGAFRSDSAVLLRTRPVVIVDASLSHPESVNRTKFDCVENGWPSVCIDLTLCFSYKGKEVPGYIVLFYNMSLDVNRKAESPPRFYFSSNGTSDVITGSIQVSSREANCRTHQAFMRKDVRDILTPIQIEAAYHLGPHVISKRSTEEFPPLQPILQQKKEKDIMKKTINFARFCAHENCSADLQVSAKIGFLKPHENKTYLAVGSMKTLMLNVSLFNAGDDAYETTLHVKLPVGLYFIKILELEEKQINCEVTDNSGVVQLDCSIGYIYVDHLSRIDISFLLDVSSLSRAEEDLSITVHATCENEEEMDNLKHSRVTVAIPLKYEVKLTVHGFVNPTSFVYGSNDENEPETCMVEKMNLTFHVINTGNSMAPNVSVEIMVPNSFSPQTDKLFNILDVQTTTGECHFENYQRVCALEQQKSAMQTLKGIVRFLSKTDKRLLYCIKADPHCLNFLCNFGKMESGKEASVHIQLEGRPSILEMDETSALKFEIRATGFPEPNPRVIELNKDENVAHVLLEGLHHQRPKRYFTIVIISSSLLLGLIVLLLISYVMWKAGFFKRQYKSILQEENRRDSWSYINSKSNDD
T1 sequence (P05556 21-798): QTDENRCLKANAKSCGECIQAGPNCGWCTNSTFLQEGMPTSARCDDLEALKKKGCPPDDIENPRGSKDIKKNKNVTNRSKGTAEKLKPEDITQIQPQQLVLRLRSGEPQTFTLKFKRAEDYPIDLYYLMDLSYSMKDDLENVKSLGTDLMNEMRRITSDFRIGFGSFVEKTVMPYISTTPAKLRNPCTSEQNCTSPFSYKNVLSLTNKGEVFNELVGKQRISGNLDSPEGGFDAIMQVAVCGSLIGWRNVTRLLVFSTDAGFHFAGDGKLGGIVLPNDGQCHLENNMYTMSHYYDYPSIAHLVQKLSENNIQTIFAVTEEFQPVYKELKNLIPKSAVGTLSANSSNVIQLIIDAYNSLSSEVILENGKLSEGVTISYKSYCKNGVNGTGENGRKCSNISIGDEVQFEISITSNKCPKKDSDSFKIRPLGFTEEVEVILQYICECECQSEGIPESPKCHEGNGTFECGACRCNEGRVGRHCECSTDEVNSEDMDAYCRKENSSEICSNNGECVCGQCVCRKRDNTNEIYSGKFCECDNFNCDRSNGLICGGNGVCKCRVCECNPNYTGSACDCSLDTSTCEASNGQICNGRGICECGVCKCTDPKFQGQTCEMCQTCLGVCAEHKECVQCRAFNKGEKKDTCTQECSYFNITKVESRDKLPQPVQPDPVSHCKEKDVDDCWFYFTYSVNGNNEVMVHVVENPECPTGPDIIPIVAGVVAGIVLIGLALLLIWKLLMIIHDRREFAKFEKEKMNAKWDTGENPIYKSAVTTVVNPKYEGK
T2 sequence (P13612 34-1032): as the sequence (P13612 34-1032) above
T2 sequence (P05556 21-798): as the sequence (P05556 21-798) above

As to `COC(=O)[C@H](Cc1ccc(OCc2c(Cl)cccc2Cl)cc1)NC(=O)CCC1(C(=O)O)CCC(=O)N1` (stereo partly drawn) [Example 116, 2-[3-[[(1S)-1-[[4-[(2,6-Dichlorophenyl)methoxy]phenyl]methyl]-2-methoxy-2-oxoethyl]amino]-3-oxopropyl]-5-oxoproline], the pIC50 in assay [1] was at most 6.00; in assay [2], at most 6.12.

For the compound `O=C(CCC1(C(=O)O)CCC(=O)N1)N[C@@H](Cc1ccc(OCc2c(Cl)cccc2Cl)cc1)C(=O)O` (stereo partly drawn) [Example 117, 2-[3-[[(1S)-1-Carboxy-2-[4-[(2,6-dichlorophenyl)methoxy]phenyl]ethyl]amino]-3-oxo-propyl]-5-oxoproline], the pIC50 in assay [1] was at most 6.00; in assay [2] it was 6.12 to 7.30.

In the case of `CC(C)(C)OC(=O)N1CSC[C@@H]1C(=O)N[C@@H](Cc1ccc(OCc2c(Cl)cccc2Cl)c(Cl)n1)C(=O)O` [Example 119, [S-(R*,R*)]-4-[[1-Carboxy-2-[[2-Chloro-3-[(2,6-dichlorophenyl)methoxy]-6-pyridyl]ethyl]amino]carbonyl]-3-thiazolidinecarboxylic Acid (1,1-Dimethylethyl)ester], the pIC50 in assay [1] is at most 6.00; in assay [2], at most 6.12.

In the case of `CC(C)(C)OC(=O)N1CSCC1C(=O)NC(Cc1ccc(OCc2c(Cl)cccc2Cl)cn1)C(=O)O` (stereo not drawn) [Example 121, [S-(R*,R*)]-4-[[[1-Carboxy-2-[3-[(2,6-dihlorophenyl)methoxy]-6-pyridyl]ethyl]amino]carbonyl]-3-thiazolidinecarboxylic Acid (1,1-Dimethylethyl)ester], the pIC50 was at most 6.00 in assay [1] and 6.12 to 7.30 in assay [2].

Regarding `CC(C)(C)OC(=O)N1CSC[C@@H]1C(=O)N[C@@H](Cc1ccc(N(C(=O)c2c(Cl)cccc2Cl)C(=O)c2c(Cl)cccc2Cl)nc1)C(=O)O` [Example 123, [S-(R*,R*)]-4-[[[[1-Carboxy-2-[2-[[bis-(2,6-dichlorobenzoyl)]amino]-5-pyridyl]]ethyl]amino]carbonyl]-3-thiazolidinecarboxylic Acid (1,1-Dimethylethyl)ester], the pIC50 was at most 6.00 in assay [1] and at most 6.12 in assay [2].

Turning to `COC(=O)[C@H](Cc1ccc(NC(=O)c2c(Cl)cccc2Cl)cc1)NC(=O)[C@@H]1COCN1C(=O)OCc1ccccc1` [Example 124, [S-(R*,R*)]-4-[[[1-[[4-[(2,6-Dichlorobenzoyl)amino]phenyl]methyl]-2-methoxy-2-oxoethyl]amino]carbonyl]-3-oxazolidinecarboxylic Acid 3-Phenylmethyl Ester], the pIC50 in assay [1] was at most 6.00; in assay [2], at most 6.12.

Regarding `O=C(Nc1ccc(C[C@H](NC(=O)[C@@H]2COCN2C(=O)OCc2ccccc2)C(=O)O)cc1)c1c(Cl)cccc1Cl` [Example 125, [S-(R*,R*)]-4-[[[1-Carboxy-2-[4-[(2,6-dichlorobenzoyl)amino]phenyl]ethyl]amino]-carbonyl]-3-oxazolidinecarboxylic Acid 3-Phenylmethyl Ester], the results for the pIC50 in assay [1] and in assay [2] were 6.00 to 6.60 and 6.12 to 7.30, respectively.

For the compound `COC(=O)[C@H](Cc1ccc(NC(=O)c2c(Cl)cccc2Cl)cc1)NC(=O)[C@H]1COCN1C(=O)OCc1ccccc1` [Example 126, [R-(R*S*)]-4-[[[1-[[4-[(2,6-Dichlorobenzoyl)amino]phenyl]methyl]-2-methoxy-2-oxoethyl]amino]carbonyl]-3-oxazolidinecarboxylic Acid 3-Phenylmethyl Ester], the pIC50 in assay [1] is at most 6.00; in assay [2] it was at most 6.12.

Turning to `O=C(Nc1ccc(C[C@H](NC(=O)[C@H]2COCN2C(=O)OCc2ccccc2)C(=O)O)cc1)c1c(Cl)cccc1Cl` [Example 127, [R-(R*,S*)]-4-[[[1-Carboxy-2-[4-[(2,6-dichlorobenzoyl)amino]phenyl]ethyl]amino]-carbonyl]-3-oxazolidinecarboxylic Acid 3-(Phenylmethyl)ester], the results for the pIC50 in assay [1] and in assay [2] were at least 6.60 and 6.12 to 7.30, respectively.

Consider `C[C@@H](c1ccccc1)N1[C@H](C(=O)O)C[C@H]1C(=O)N[C@@H](Cc1ccc(NC(=O)c2c(Cl)cccc2Cl)cc1)C(=O)O` [Example 129, [2S-[1(R*),2α,4β(R*)]]-4-[[[1-Carboxy-2-[4-[(2,6-dichlorobenzoyl)amino]phenyl]ethyl]-amino]carbonyl]-1-(1-phenylethyl)-2-azetidinecarboxylic Acid Dilithium Salt], for which the pIC50 was 6.00 to 6.60 in assay [1] and 6.12 to 7.30 in assay [2].

On to `C[C@H](c1ccccc1)N1[C@H](C(=O)O)C[C@H]1C(=O)N[C@@H](Cc1ccc(NC(=O)c2c(Cl)cccc2Cl)cc1)C(=O)O` [Example 137, [2S-[1(S*),2α,4β(R*)]]-4-[[[1-Carboxy-2-[4-[(2,6-dichlorobenzoyl)amino]phenyl]ethyl]-amino]carbonyl]-1-(1-phenylethyl)-2-azetidinecarboxylic Acid], for which the pIC50 in assay [1] was 6.00 to 6.60; in assay [2], 6.12 to 7.30.

With `CCOC(=O)N1[C@@H](C(=O)O)C[C@@H]1C(=O)N[C@@H](Cc1ccc(NC(=O)c2c(Cl)cccc2Cl)cc1)C(=O)O` [Example 141, [2R-(2α,4β(S*)]-4-[[[1-Carboxy-2-[4-[(2,6-dichlorobenzoyl)amino]phenyl]ethyl]-amino]-carbonyl]-1,2-azetidinedicarboxylic Acid 1-Ethyl Ester], the pIC50 is at most 6.00 in assay [1] and 6.12 to 7.30 in assay [2].

Take `CC(C)(C)OC(=O)N1CC[C@H]1C(=O)N[C@@H](Cc1ccc(NC(=O)c2c(Cl)cccc2Cl)cc1)C(=O)O` [Example 143, [2S-(R*,R*)]-2-[[[1-Carboxy-2-[4-[(2,6-dichlorobenzoyl)amino]phenyl]ethyl]amino]-carbonyl]-1-azetidinecarboxylic Acid 1-(1,1-Dimethylethyl)ester]: the values for the pIC50 in assay [1] and in assay [2] were at most 6.00 and 6.12 to 7.30, respectively.

With `O=C(Nc1ccc(C[C@H](NC(=O)[C@@H]2CCN2)C(=O)O)cc1)c1c(Cl)cccc1Cl` [Example 144, N-[[(2S)-2-Azetidinyl]carbonyl]-4-[(2,6-dichlorobenzoyl)amino]-L-phenylalanine Trifluoroacetic acid Salt], the pIC50 in assay [1] is at most 6.00; in assay [2] it was 6.12 to 7.30.

With `CC(C)(C)OC(=O)N1CC(C(=O)N[C@@H](Cc2ccc(NC(=O)c3c(Cl)cccc3Cl)cc2)C(=O)O)C1` [Example 146], the pIC50 in assay [1] is at most 6.00; in assay [2], at most 6.12.

On to `O=C(Nc1ccc(C[C@H](NC(=O)C2CNC2)C(=O)O)cc1)c1c(Cl)cccc1Cl` [Example 147, N-[[3-Azetidinyl]carbonyl]-4-[(2,6-dichlorobenzoyl)amino]-L-phenylalanine, Trifluoroacetic Acid Salt], for which the pIC50 in assay [1] is at most 6.00; in assay [2] it was at most 6.12.

For `CCOC(=O)N1CSC[C@@H]1C(=O)N[C@@H](Cc1ccc(NC(=O)c2c(Cl)cccc2Cl)cc1)C(=O)OCc1ccncc1` [Example 154, [S-(R*,R*) 4-[[[1-[4-[(2,6-Dichlorobenzoyl)amino]phenyl]methyl]-2-[(4-pyridinyl)methoxy]-2-oxoethyl]amino]carbonyl]-3-thiazolidinecarboxylic Acid 3-Ethyl Ester], the pIC50 in assay [1] is 6.00 to 6.60; in assay [2] it was at least 7.30.

Consider `O=C(O)CCC(=O)N1CCCCC1C(=O)N[C@@H](Cc1ccc(NC(=O)c2c(Cl)cccc2Cl)cc1)C(=O)O` (some centres unmarked) [Example 167], for which the pIC50 in assay [1] is 6.00 to 6.60; in assay [2], 6.12 to 7.30.

On to `CN1C(=O)CC(C(=O)N[C@@H](Cc2ccc(NC(=O)c3c(Cl)cccc3Cl)cc2)C(=O)O)C1c1ccc2c(c1)OCO2` (stereo partly drawn) [Example 171, N-[[2-(1,3-Benzodioxol-5-yl)-1-methyl-5-oxo-3-pyrrolidinyl]carbonyl]-4-[(2,6-dichlorobenzoyl)amino]-L-phenylalanine], for which the pIC50 in assay [1] was at most 6.00; in assay [2] it was 6.12 to 7.30.

With `O=C(O)c1cncc(C(=O)N2CCCC[C@H]2C(=O)N[C@@H](Cc2ccc(NC(=O)c3c(Cl)cccc3Cl)cc2)C(=O)O)c1` [Example 172, 5-[[(2S)-2-[[[(1S)-1-Carboxy-2-[4-[(2,6-dichlorobenzoyl)amino]phenyl]ethyl]amino]carbonyl]-1-piperidinyl]carbonyl]-3-pyridinecarboxylic Acid], the pIC50 in assay [1] was at least 6.60; in assay [2], at least 7.30.

`COCCC(=O)N1CCCC(C(=O)N[C@@H](Cc2ccc(NC(=O)c3c(Cl)cccc3Cl)cc2)C(=O)O)C1` (stereo partly drawn) [Example 173, 4-[(2,6-Dichlorobenzoyl)amino]-N-[[1-(3-methoxy-1-oxopropyl)-3-piperidinyl]carbonyl]-L-phenylalanine]: the pIC50 in assay [1] is at least 6.60; in assay [2], 6.12 to 7.30.

For `O=C(O)/C=C/C(=O)N1CCCC[C@H]1C(=O)N[C@@H](Cc1ccc(NC(=O)c2c(Cl)cccc2Cl)cc1)C(=O)O` [Example 176], the pIC50 is at most 6.00 in assay [1] and 6.12 to 7.30 in assay [2].

As to `COCCC(=O)N1CCCC[C@H]1C(=O)N[C@@H](Cc1ccc(NC(=O)c2c(Cl)cccc2Cl)cc1)C(=O)O` [Example 177], the pIC50 was at most 6.00 in assay [1] and at least 7.30 in assay [2].

On to `O=C(Nc1ccc(C[C@H](NC(=O)[C@@H]2CCCCN2C(=O)C2CCCC(C(=O)O)C2)C(=O)O)cc1)c1c(Cl)cccc1Cl` (some centres unmarked) [Example 178], for which the pIC50 in assay [1] was at most 6.00; in assay [2], at least 7.30.

For `O=C(O)c1ccccc1C(=O)N1CCCC[C@H]1C(=O)N[C@@H](Cc1ccc(NC(=O)c2c(Cl)cccc2Cl)cc1)C(=O)O` [Example 181], the pIC50 in assay [1] is at most 6.00; in assay [2], 6.12 to 7.30.
